The text below walks through data of patent publication US12187759B2, “TLR7 agonists” (Primmune Therapeutics, Inc., priority 2019, dated 2025).

Assay [1] relates to hPBMCs (Human Peripheral Blood Mononuclear Cells). As to the kind of experiment: Induction of interferon-α in hPBMCs in vitro. Type of assay: cell-based. The settings on record: Homo sapiens, PBMC; for Emax: 24 h, peak IFNα2a as percentage of peak response of standard 2-Amino-7-(cyclopropylmethyl)-9-B-D-xylofuranosyl-7,9-dihydro-1H-purine-6,8-dione, averaged across donors, read-out: IFNrmax, Relative Maximal IFNα2a Production (%); for minimal effective concentration: minimal effective concentration for interferon-α production (generally at least 80 pg/ml above baseline), geometric mean across at least three donors, 24 hours, read-out: Weighted MEC. In outline:
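Peripheral blood mononuclear cells from healthy human donors were dispensed into replicate culture wells at 1.0-7.5×10^6 cells per well. They were exposed to test compound for 24 hours at 37° C. in humidified 5% CO2, with untreated wells as controls. Secreted interferon-α was quantified with a multisubtype ELISA or as IFNα2a in a luminex panel. MEC was defined as the lowest concentration giving a significant rise above baseline, generally at least 80 pg/ml. IFNmax was the highest IFN level seen at any tested concentration.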

The target of another assay is T1, human TLR7 (Homo sapiens, UniProt Q9NYK1).
T1 construct: host or cells: HEK293
T1 sequence (Q9NYK1 27-1049): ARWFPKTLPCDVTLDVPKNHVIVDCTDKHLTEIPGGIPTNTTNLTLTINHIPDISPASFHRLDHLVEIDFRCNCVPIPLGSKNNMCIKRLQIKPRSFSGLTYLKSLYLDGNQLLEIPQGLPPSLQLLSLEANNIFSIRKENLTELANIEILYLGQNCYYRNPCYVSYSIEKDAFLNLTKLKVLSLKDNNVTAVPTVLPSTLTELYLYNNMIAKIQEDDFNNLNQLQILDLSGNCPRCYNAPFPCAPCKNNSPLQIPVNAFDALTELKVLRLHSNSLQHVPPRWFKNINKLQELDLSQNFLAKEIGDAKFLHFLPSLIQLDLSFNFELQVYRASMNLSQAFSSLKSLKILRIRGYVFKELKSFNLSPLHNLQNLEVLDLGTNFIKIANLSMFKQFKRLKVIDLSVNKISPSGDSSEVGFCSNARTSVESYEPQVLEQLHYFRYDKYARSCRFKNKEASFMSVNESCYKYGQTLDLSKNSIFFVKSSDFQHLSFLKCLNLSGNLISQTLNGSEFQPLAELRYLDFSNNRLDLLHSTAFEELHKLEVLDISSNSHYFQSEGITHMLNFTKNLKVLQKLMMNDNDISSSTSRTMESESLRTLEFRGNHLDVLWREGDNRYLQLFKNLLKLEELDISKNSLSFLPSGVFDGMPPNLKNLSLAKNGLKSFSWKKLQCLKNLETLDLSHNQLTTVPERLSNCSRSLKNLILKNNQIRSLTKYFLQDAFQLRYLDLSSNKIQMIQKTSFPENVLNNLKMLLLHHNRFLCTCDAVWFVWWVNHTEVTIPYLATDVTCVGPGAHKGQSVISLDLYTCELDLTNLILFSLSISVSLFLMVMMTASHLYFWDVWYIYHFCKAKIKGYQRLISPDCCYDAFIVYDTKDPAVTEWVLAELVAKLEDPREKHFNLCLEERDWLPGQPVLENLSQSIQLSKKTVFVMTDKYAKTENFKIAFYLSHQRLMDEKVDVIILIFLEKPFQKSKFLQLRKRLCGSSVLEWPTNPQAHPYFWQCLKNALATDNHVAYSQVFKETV
As to the kind of experiment: TLR7 reporter cell assay (HEK293 cells stably expressing human TLR7 with NF-κB-driven SEAP reporter). Type of assay: cell-based. The settings on record: 15-24 hours; for Emax at 500 µM: HEK293, 500 μM compound, SEAP activity (OD 650 nm) relative to 28.5 μM resiquimod, read-out: Response at 500 μM Compound as a Percent of Resiquimod Response; for EC50: fit of SEAP dose response, ymax from 28.5 μM resiquimod. In outline:
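HEK293 cells stably expressing human TLR7 with an NF-κB-driven SEAP reporter, treated with compound for 15-24 hours. SEAP read at OD 650 nm. EC50 fitted by nonlinear least squares, maximum set by 28.5 μM resiquimod.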

On to `CCCCn1c(=O)n([C@@H]2O[C@H]([C@@H](O)CC)[C@H](F)[C@H]2O)c2nc(N)[nH]c(=O)c21` [Compound 30, 2-Amino-7-butyl-9-((2R,3S,4R,5R)-4-fluoro-3-hydroxy-5-((S)-1-hydroxypropyl)tetrahydrofuran-2-yl)-7,9-dihydro-1H-purine-6,8-dione], for which, in assay [1], the Emax was determined as 347% and the minimal effective concentration amounted to 1.6 µM. For the same compound, on human TLR7, the Emax at 500 µM is 87% and it took 94 µM to reach a half-maximal effect (EC50).

`CCCCn1c(=O)n([C@@H]2O[C@H]([C@@H](O)C(F)(F)F)C[C@H]2O)c2nc(N)[nH]c(=O)c21` [Compound 31, 2-Amino-7-butyl-9-((2R,3R,5S)-3-hydroxy-5-((R)-2,2,2-trifluoro-1-hydroxyethyl)tetrahydrofuran-2-yl)-7,9-dihydro-1H-purine-6,8-dione]: in assay [1], the Emax came to 71% and the minimal effective concentration turned out to be 6.3 µM. Moreover, at human TLR7, the Emax at 500 µM was determined as 78% and the half-maximal effective concentration (EC50) (commonly the concentration at which the effect is half-maximal) came out at 210 µM.

For `CC[C@H](O)[C@@H]1C[C@@H](O)[C@H](n2c(=O)n(CCO)c3c(=O)[nH]c(N)nc32)O1` [Compound 32, 2-Amino-9-((2R,3R,5S)-3-hydroxy-5-((S)-1-hydroxypropyl)tetrahydrofuran-2-yl)-7-(2-hydroxyethyl)-7,9-dihydro-1H-purine-6,8-dione], in assay [1], the Emax turned out to be 223% and the minimal effective concentration was determined as 7.9 µM. Besides, at human TLR7, the Emax at 500 µM was 68% and the midpoint of the response, the EC50, lay at 339 µM.

For `C#CC[C@H](O)[C@@H]1C[C@@H](O)[C@H](n2c(=O)n(CC#C)c3c(=O)[nH]c(N)nc32)O1` [Compound 35, 2-Amino-9-((2R,3R,5S)-3-hydroxy-5-((S)-1-hydroxybut-3-yn-1-yl)tetrahydrofuran-2-yl)-7-(prop-2-yn-1-yl)-7,9-dihydro-1H-purine-6,8-dione], in assay [1], the Emax was 207% and the minimal effective concentration was 3.1 µM. Further, on human TLR7, the Emax at 500 µM worked out at 91% and the EC50 came out at 114 µM.

For the compound `C#CCn1c(=O)n([C@@H]2O[C@H](C(=O)OC)C[C@H]2O)c2nc(N)[nH]c(=O)c21` [Compound 39, Methyl (2S,4R,5R)-5-(2-amino-6,8-dioxo-7-(prop-2-yn-1-yl)-1,6,7,8-tetrahydro-9H-purin-9-yl)-4-hydroxytetrahydrofuran-2-carboxylate], in assay [1], the Emax is not above 10% and the minimal effective concentration was more than 50 µM. On human TLR7, the Emax at 500 µM is less than 5%.

`C#CCn1c(=O)n([C@@H]2O[C@H](C(=O)O)C[C@H]2O)c2nc(N)[nH]c(=O)c21` [Compound 40, (2S,4R,5R)-5-(2-Amino-6,8-dioxo-7-(prop-2-yn-1-yl)-1,6,7,8-tetrahydro-9H-purin-9-yl)-4-hydroxytetrahydrofuran-2-carboxylic acid]: in assay [1], the Emax was not above 10% and the minimal effective concentration was more than 50 µM. Moreover, the Emax at 500 µM on human TLR7 is less than 5%.

In the case of `C#CCn1c(=O)n([C@@H]2O[C@H](C(N)=O)C[C@H]2O)c2nc(N)[nH]c(=O)c21` [Compound 41, (2S,4R,5R)-5-(2-Amino-6,8-dioxo-7-(prop-2-yn-1-yl)-1,6,7,8-tetrahydro-9H-purin-9-yl)-4-hydroxytetrahydrofuran-2-carboxamide], in assay [1], the Emax is not above 10% and the minimal effective concentration was more than 50 µM. Further, on human TLR7, the Emax at 500 µM was less than 5%.

Take `C#CCn1c(=O)n([C@@H]2O[C@H](C(=O)NC)C[C@H]2O)c2nc(N)[nH]c(=O)c21` [Compound 42, (2S,4R,5R)-5-(2-Amino-6,8-dioxo-7-(prop-2-yn-1-yl)-1,6,7,8-tetrahydro-9H-purin-9-yl)-4-hydroxy-N-methyltetrahydrofuran-2-carboxamide]: in assay [1], the Emax was not above 10% and the minimal effective concentration was more than 50 µM. Moreover, the Emax at 500 µM at human TLR7 was less than 5%.

As to `CC[C@H](O)[C@@H]1C[C@@H](O)[C@H](n2c(=O)n(CC(F)(F)F)c3c(=O)[nH]c(N)nc32)O1` [Compound 43, 2-Amino-9-((2R,3R,5S)-3-hydroxy-5-((S)-1-hydroxypropyl)tetrahydrofuran-2-yl)-7-(2,2,2-trifluoroethyl)-7,9-dihydro-1H-purine-6,8-dione], in assay [1], the Emax was 158% and the minimal effective concentration amounted to 2.5 µM. For the same compound, at human TLR7, the Emax at 500 µM came out at 97% and a half-maximal effect (EC50) was put at 55 µM.

Regarding `CC[C@H](O)[C@H]1O[C@@H](n2c(=O)n(CC(F)(F)F)c3c(=O)[nH]c(N)nc32)[C@H](O)[C@H]1F` [Compound 44, 2-Amino-9-((2R,3S,4R,5R)-4-fluoro-3-hydroxy-5-((S)-1-hydroxypropyl)tetrahydrofuran-2-yl)-7-(2,2,2-trifluoroethyl)-7,9-dihydro-1H-purine-6,8-dione], in assay [1], the Emax was found to be 250% and the minimal effective concentration was found to be 2 µM. Further, at human TLR7, the Emax at 500 µM amounted to 101% and a half-maximal effect (EC50) was put at 86 µM.

Take `C#CCn1c(=O)n([C@@H]2O[C@H]([C@@H](O)CSC)C[C@H]2O)c2nc(N)[nH]c(=O)c21` [Compound 45, 2-Amino-9-((2R,3R,5S)-3-hydroxy-5-((R)-1-hydroxy-2-(methylthio)ethyl)tetrahydrofuran-2-yl)-7-(prop-2-yn-1-yl)-7,9-dihydro-1H-purine-6,8-dione]: in assay [1], the Emax came out at 321% and the minimal effective concentration turned out to be 5 µM. Also, on human TLR7, the Emax at 500 µM was determined as 66% and the EC50 turned out to be 185 µM.

Take `CC[C@H](O)[C@H]1O[C@@H](n2c(=O)n(CCSC)c3c(=O)[nH]c(N)nc32)[C@H](O)[C@H]1F` [Compound 46, 2-Amino-9-((2R,3S,4R,5R)-4-fluoro-3-hydroxy-5-((S)-1-hydroxypropyl)tetrahydrofuran-2-yl)-7-(2-(methylthio)ethyl)-7,9-dihydro-1H-purine-6,8-dione]: in assay [1], the Emax was found to be 317% and the minimal effective concentration is 3.1 µM. For the same compound, on human TLR7, the Emax at 500 µM amounted to 30% and the EC50 is more than 500 µM.
